Source: patent US10168342B2, “Lipid probes and uses thereof” (THE SCRIPPS RESEARCH INSTITUTE, priority 2015, dated 2019)
Where two headings read alike, the source gives them in different places.

Legend:
[1] = target: T1, AEA-DA lipid probe targets in Neuro2a cells (Mus musculus, UniProt P37040)
T1 sequence (P37040 1-678): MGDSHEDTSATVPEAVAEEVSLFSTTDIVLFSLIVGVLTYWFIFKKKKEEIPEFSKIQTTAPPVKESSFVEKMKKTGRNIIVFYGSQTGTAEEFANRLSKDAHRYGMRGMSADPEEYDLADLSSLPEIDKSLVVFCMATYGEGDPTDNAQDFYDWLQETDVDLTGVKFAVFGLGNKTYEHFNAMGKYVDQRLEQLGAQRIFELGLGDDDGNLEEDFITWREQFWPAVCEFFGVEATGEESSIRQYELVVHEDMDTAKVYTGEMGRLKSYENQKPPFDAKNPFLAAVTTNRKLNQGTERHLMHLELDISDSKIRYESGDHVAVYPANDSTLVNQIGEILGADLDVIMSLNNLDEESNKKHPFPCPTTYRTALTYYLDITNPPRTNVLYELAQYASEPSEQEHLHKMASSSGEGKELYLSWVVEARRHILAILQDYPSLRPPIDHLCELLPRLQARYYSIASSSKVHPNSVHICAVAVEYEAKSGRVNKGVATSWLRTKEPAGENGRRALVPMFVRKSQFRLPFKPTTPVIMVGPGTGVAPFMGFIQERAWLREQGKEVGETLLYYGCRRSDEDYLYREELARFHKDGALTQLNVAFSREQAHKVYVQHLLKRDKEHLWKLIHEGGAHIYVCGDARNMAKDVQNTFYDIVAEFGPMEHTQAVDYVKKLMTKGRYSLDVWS

[2] = target: T2, AEA-DA lipid probe targets in Neuro2a cells (Mus musculus, UniProt Q9CQ85); details: for SILAC ratio, TIMM22 (Q9CQ85): Neuro2a cells, AEA-DA probe
T2 sequence (Q9CQ85 1-194): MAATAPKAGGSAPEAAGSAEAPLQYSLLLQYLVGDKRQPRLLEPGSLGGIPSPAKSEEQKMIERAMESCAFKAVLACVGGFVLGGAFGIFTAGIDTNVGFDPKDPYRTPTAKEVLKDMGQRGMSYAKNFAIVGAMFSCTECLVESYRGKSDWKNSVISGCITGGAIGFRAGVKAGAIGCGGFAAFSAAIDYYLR

[3] = target: T3, AEA-DA lipid probe targets in Neuro2a cells (Mus musculus, UniProt Q99JY4); details: for SILAC ratio, TRABD (Q99JY4): Neuro2a cells, AEA-DA probe
T3 sequence (Q99JY4 1-376): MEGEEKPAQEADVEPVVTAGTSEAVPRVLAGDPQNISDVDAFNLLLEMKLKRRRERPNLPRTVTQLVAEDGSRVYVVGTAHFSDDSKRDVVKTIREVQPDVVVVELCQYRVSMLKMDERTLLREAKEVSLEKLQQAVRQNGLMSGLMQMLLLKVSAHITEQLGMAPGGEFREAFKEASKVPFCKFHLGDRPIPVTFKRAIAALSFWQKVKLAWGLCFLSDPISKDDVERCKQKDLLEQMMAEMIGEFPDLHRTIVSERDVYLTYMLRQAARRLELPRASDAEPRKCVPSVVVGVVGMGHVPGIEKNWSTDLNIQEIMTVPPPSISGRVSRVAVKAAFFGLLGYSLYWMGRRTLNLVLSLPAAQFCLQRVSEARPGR

[4] = target: AEA-DA lipid probe targets in Neuro2a cells (Mus musculus, UniProt Q9R1P3)
[5] = target: T4, AEA-DA lipid probe targets in Neuro2a cells (Mus musculus, UniProt O70252); details: for SILAC ratio, HMOX2 (P30519): Neuro2a cells, AEA-DA probe
T4 sequence (O70252 1-315): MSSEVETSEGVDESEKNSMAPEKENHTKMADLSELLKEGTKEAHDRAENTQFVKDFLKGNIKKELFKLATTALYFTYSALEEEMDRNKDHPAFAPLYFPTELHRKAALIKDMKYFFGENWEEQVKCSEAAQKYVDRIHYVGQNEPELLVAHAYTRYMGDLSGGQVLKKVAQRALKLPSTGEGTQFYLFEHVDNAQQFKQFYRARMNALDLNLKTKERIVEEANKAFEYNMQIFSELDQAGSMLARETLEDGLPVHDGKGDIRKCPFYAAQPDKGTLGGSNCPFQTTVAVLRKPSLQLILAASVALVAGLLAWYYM

[6] = target: AEA-DA lipid probe targets in Neuro2a cells (Mus musculus, UniProt Q60715)
[7] = target: AEA-DA lipid probe targets in Neuro2a cells (Mus musculus, UniProt P45377)
[8] = target: AEA-DA lipid probe targets in Neuro2a cells (Mus musculus, UniProt Q8JZU2)
[9] = target: T5, AEA-DA lipid probe targets in Neuro2a cells (Mus musculus, UniProt Q9CQQ7)
T5 sequence (Q9CQQ7 43-256): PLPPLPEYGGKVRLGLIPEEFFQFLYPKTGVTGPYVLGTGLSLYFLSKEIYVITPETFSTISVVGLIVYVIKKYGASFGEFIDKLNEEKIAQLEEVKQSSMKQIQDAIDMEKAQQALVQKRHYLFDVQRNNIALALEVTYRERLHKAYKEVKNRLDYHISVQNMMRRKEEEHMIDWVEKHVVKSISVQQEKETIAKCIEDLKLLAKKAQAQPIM

Sequence of AEA-DA lipid probe targets in Neuro2a cells (Mus musculus, UniProt Q60715) (Q60715 18-534): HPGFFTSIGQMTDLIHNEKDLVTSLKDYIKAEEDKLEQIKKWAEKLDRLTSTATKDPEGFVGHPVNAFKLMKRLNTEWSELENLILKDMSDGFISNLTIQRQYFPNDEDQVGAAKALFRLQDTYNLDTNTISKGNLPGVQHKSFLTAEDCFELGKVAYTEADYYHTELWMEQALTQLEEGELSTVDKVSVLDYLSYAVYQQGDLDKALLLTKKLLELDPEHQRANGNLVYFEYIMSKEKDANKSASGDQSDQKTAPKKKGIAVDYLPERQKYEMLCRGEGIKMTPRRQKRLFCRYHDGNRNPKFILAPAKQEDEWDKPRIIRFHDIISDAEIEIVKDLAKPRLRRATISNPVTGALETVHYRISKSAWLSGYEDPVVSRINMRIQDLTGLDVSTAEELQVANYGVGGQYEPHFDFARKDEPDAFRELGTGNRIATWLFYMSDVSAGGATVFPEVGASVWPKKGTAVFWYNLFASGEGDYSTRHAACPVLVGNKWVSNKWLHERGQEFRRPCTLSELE
Sequence of AEA-DA lipid probe targets in Neuro2a cells (Mus musculus, UniProt Q8JZU2) (Q8JZU2 14-311): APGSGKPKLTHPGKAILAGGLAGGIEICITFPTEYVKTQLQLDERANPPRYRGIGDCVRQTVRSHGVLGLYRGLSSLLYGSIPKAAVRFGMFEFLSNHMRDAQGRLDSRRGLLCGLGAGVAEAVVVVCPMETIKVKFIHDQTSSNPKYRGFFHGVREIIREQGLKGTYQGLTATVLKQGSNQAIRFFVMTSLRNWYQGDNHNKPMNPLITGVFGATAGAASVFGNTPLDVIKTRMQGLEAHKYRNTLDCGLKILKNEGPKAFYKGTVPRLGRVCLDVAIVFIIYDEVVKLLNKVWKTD
Sequence of AEA-DA lipid probe targets in Neuro2a cells (Mus musculus, UniProt Q9R1P3) (Q9R1P3 whole entry): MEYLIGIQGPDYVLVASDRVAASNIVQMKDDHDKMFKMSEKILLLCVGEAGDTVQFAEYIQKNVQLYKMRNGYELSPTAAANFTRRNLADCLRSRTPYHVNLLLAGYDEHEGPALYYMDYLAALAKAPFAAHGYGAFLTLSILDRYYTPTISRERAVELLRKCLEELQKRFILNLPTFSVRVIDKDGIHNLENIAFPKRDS
Sequence of AEA-DA lipid probe targets in Neuro2a cells (Mus musculus, UniProt P45377) (P45377 whole entry): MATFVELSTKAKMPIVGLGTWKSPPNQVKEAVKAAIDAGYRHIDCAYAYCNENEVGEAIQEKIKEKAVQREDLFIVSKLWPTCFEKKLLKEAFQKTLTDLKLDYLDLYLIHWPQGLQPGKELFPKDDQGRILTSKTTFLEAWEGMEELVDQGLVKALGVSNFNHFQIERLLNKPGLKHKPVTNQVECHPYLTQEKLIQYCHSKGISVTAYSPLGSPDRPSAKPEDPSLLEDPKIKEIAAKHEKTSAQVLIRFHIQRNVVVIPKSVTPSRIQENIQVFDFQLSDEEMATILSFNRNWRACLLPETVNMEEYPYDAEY

C=CCN(C)CCCCCCOc1ccc(C(=O)c2ccc(Br)cc2)c(F)c1 [Ro 48-8071, reference compound]
SILAC ratio, Por ([1]; competitor 25 μM): 1.5
SILAC ratio, TIMM22 (Q9CQ85) ([2]; competitor 25 μM): 1.1
SILAC ratio, Timm22 ([2]; competitor 25 μM): 1.1
SILAC ratio, TRABD (Q99JY4) ([3]; competitor 25 μM): 1.0
SILAC ratio, Trabd ([3]; competitor 25 μM): 1.0
SILAC ratio Psmb2 ([4]; competitor 25 μM): 1.0
SILAC ratio, HMOX2 (P30519) ([5]; competitor 25 μM): 1.3
SILAC ratio, Hmox2 ([5]; competitor 25 μM): 1.3
SILAC ratio P4ha1 ([6]; competitor 25 μM): 1.1
SILAC ratio, Akr1b8 ([7]; competitor 25 μM): 1.4
SILAC ratio Slc25a1 ([8]; competitor 25 μM): 1.0
SILAC ratio Atp5f1 ([9]; competitor 25 μM): 1.0

CN1CCN(C(=O)c2[nH]c3ccc([N+](=O)[O-])cc3c2-c2ccccc2)CC1 [MJN228, (4-Methylpiperazin-1-yl)(5-nitro-3-phenyl-1H-indol-2-yl)methanone]
SILAC ratio, Por ([1]; competitor 10 μM): 1.4
SILAC ratio, Por ([1]; competitor 25 μM): 1.8
SILAC ratio, Por ([1]; competitor 50 μM): 2.0
SILAC ratio, Por ([1]; competitor 100 μM): 3.1
SILAC ratio, TIMM22 (Q9CQ85) ([2]; competitor 25 μM): 1.3
SILAC ratio, Timm22 ([2]; competitor 10 μM): 1.0
SILAC ratio, Timm22 ([2]; competitor 25 μM): 1.3
SILAC ratio, Timm22 ([2]; competitor 50 μM): 1.0
SILAC ratio, Timm22 ([2]; competitor 100 μM): 1.8
SILAC ratio, TRABD (Q99JY4) ([3]; competitor 25 μM): 1.3
SILAC ratio, Trabd ([3]; competitor 10 μM): 1.1
SILAC ratio, Trabd ([3]; competitor 25 μM): 1.3
SILAC ratio, Trabd ([3]; competitor 50 μM): 1.4
SILAC ratio, Trabd ([3]; competitor 100 μM): 1.7
SILAC ratio Psmb2 ([4]; competitor 10 μM): 1.3
SILAC ratio Psmb2 ([4]; competitor 25 μM): 1.4
SILAC ratio Psmb2 ([4]; competitor 50 μM): 1.2
SILAC ratio Psmb2 ([4]; competitor 100 μM): 2.2
SILAC ratio, HMOX2 (P30519) ([5]; competitor 25 μM): 1.4
SILAC ratio, Hmox2 ([5]; competitor 10 μM): 1.1
SILAC ratio, Hmox2 ([5]; competitor 25 μM): 1.4
SILAC ratio, Hmox2 ([5]; competitor 50 μM): 1.3
SILAC ratio, Hmox2 ([5]; competitor 100 μM): 1.7
SILAC ratio P4ha1 ([6]; competitor 10 μM): 1.3
SILAC ratio, Akr1b8 ([7]; competitor 25 μM): 1.9
SILAC ratio, Akr1b8 ([7]; competitor 50 μM): 2.1
SILAC ratio, Akr1b8 ([7]; competitor 100 μM): 2.7
SILAC ratio Slc25a1 ([8]; competitor 10 μM): 1.2
SILAC ratio Slc25a1 ([8]; competitor 25 μM): 1.1
SILAC ratio Slc25a1 ([8]; competitor 50 μM): 1.5
SILAC ratio Slc25a1 ([8]; competitor 100 μM): 1.5
SILAC ratio Atp5f1 ([9]; competitor 10 μM): 1.2
SILAC ratio Atp5f1 ([9]; competitor 25 μM): 1.5
SILAC ratio Atp5f1 ([9]; competitor 50 μM): 1.6
SILAC ratio Atp5f1 ([9]; competitor 100 μM): 1.8

CCCCC/C=C\C/C=C\C/C=C\C/C=C\CCCC(=O)NCCO [AEA, anandamide, reference compound]
SILAC ratio, Por ([1]; competitor 200 μM): 2.0
SILAC ratio, TIMM22 (Q9CQ85) ([2]; competitor 200 μM): 1.3
SILAC ratio, Timm22 ([2]; competitor 200 μM): 1.3
SILAC ratio, TRABD (Q99JY4) ([3]; competitor 200 μM): 1.0
SILAC ratio, Trabd ([3]; competitor 200 μM): 1.0
SILAC ratio Psmb2 ([4]; competitor 200 μM): 1.3
SILAC ratio, HMOX2 (P30519) ([5]; competitor 200 μM): 3.2
SILAC ratio, Hmox2 ([5]; competitor 200 μM): 3.2
SILAC ratio P4ha1 ([6]; competitor 200 μM): 1.0
SILAC ratio, Akr1b8 ([7]; competitor 200 μM): 7.7
SILAC ratio Slc25a1 ([8]; competitor 200 μM): 1.2
SILAC ratio Atp5f1 ([9]; competitor 200 μM): 1.5

CN1CCN(C(=O)c2c(-c3ccccc3)c3cc([N+](=O)[O-])ccc3n2C)CC1 [KML110, (1-Methyl-5-nitro-3-phenyl-1H-indol-2-yl)(4-methylpiperazin-1-yl)methanone]
SILAC ratio, Por ([1]; competitor 25 μM): 1.6
SILAC ratio, Timm22 ([2]; competitor 25 μM): 1.4
SILAC ratio, Trabd ([3]; competitor 25 μM): 1.5
SILAC ratio Psmb2 ([4]; competitor 25 μM): 1.7
SILAC ratio, Hmox2 ([5]; competitor 25 μM): 1.5
SILAC ratio, Akr1b8 ([7]; competitor 25 μM): 3.1
SILAC ratio Slc25a1 ([8]; competitor 25 μM): 1.2
SILAC ratio Atp5f1 ([9]; competitor 25 μM): 1.6

O=C(/C=C/c1cccnc1)NCCCCC1CCN(C(=O)c2ccccc2)CC1 [FK-866, reference compound]
SILAC ratio, Por ([1]; competitor 25 μM): 1.2
SILAC ratio, TIMM22 (Q9CQ85) ([2]; competitor 25 μM): 1.2
SILAC ratio, Timm22 ([2]; competitor 25 μM): 1.2
SILAC ratio, TRABD (Q99JY4) ([3]; competitor 25 μM): 1.2
SILAC ratio, Trabd ([3]; competitor 25 μM): 1.2
SILAC ratio Psmb2 ([4]; competitor 25 μM): 1.7
SILAC ratio, HMOX2 (P30519) ([5]; competitor 25 μM): 1.0
SILAC ratio, Hmox2 ([5]; competitor 25 μM): 1.0
SILAC ratio P4ha1 ([6]; competitor 25 μM): 1.1
SILAC ratio, Akr1b8 ([7]; competitor 25 μM): 1.7
SILAC ratio Slc25a1 ([8]; competitor 25 μM): 1.2
SILAC ratio Atp5f1 ([9]; competitor 25 μM): 1.1
